Assay results reported in PMC11395333, “The Bifunctional Dimer Caffeine-Indan Attenuates α-Synuclein Misfolding, Neurodegeneration and Behavioral Deficits after Chronic Stimulation of Adenosine A1 Receptors” (International Journal of Molecular Sciences, 2024).

Key:
α-Syn = test system: α-Syn; parameters: method as in PMID 35139916; conditions: co-administration with CPA; cited from earlier work
[1] = In vivo metabolic stability, radio-HPLC of tissue extracts; parameters: species or system CD-1 mice; conditions: liver and pancreas extracts, 40 min p.i.
Method: The liver, pancreas, and brain were collected, washed with saline, placed in water/acetonitrile, and homogenized using the Fisherbrand™ 150 Handheld Homogenizer (Thermo Fisher Scientific, Waltham, MA, USA). The samples were centrifuged at 14,000 relative centrifugal force (rcf) for 5 min (AccuSpin Micro 17, Thermo Fisher Scientific, Waltham, MA, USA). The supernatants were collected and filtered using 0.22 μm organic Millipore-Sigma filters (Oakville, ON, Canada). The clarified filtrate was injected into the HPLC and radioanalytes separated by a reverse phase column (5 μm C18, 9.4 × 250 mm reverse phase column, PN-990967-202, flow rate 5.00 mL/min) using the same gradient elution as described in Table 1. The elution of radioactive metabolites was detected using the radiation detector as described above. […] The radioactivity in each organ/tissue was measured using a calibrated automatic gamma counter (2480 Perkin Elmer, Waltham MA, USA) and the tissue uptake was expressed as a percentage of injected dose (ID) per gram (% ID/g). All radioactivity measurements were corrected for decay. Data are shown as average mean± SEM, calculated using replication for each sample.

[2] = Ex vivo biodistribution in healthy CD-1 mice; conditions: for Biodistribution, blood / Biodistribution, bone / Biodistribution, brain / Biodistribution, heart / Biodistribution, kidney / Biodistribution, large intestine / Biodistribution, liver / Biodistribution, lung / Biodistribution, small intestine / Biodistribution, spleen: tail vein injection
Method: The liver, pancreas, and brain were collected, washed with saline, placed in water/acetonitrile, and homogenized using the Fisherbrand™ 150 Handheld Homogenizer (Thermo Fisher Scientific, Waltham, MA, USA). The samples were centrifuged at 14,000 relative centrifugal force (rcf) for 5 min (AccuSpin Micro 17, Thermo Fisher Scientific, Waltham, MA, USA). The supernatants were collected and filtered using 0.22 μm organic Millipore-Sigma filters (Oakville, ON, Canada). The clarified filtrate was injected into the HPLC and radioanalytes separated by a reverse phase column (5 μm C18, 9.4 × 250 mm reverse phase column, PN-990967-202, flow rate 5.00 mL/min) using the same gradient elution as described in Table 1. The elution of radioactive metabolites was detected using the radiation detector as described above. […] The mice were euthanized (anesthesia followed by cervical dislocation followed by cardiac puncture and blood draw) at 5, 10, 20, 40, and 60 min p.i., and different organs were harvested (blood, liver, small intestine, kidney, spleen, lung, heart, large intestine, bone, and brain), washed and placed in pre-weighed tubes. The radioactivity in each organ/tissue was measured using a calibrated automatic gamma counter (2480 Perkin Elmer, Waltham MA, USA) and the tissue uptake was expressed as a percentage of injected dose (ID) per gram (% ID/g). All radioactivity measurements were corrected for decay. Data are shown as average mean± SEM, calculated using replication for each sample.

[3] = Micro-PET/CT dynamic imaging; type: in vivo, CD-1 mice
Method: The acquisition of dynamic PET data (10 × 10, 8 × 15, 6 × 20, 6 × 30, 4 × 60, 1 × 100, 4 × 100, 6 × 150, 4 × 300) was started immediately after radiotracer injection, followed by a 1 min CT scan. PET/CT images were registered and reconstructed automatically by the GNEXT system. PET images were reconstructed using a 3D-ordered Subset Expectation Maximization algorithm with 24 subsets and 3 iterations. CT images were reconstructed using a Modified Feldkamp algorithm. All data were analyzed using Vivoquant software (IviCRO) (InVicro, Needham, MA, USA). CT images were used to define anatomical regions of interest (ROIs) through PET/CT image co-registration. The quantification of activity concentration in the brain was performed by drawing ROIs and the mean and maximum standard uptake values (SUVs) were determined using the formula: SUV = [(MBq/mL) × (animal wt. (g))/injected dose (MBq)].

[4] = parameters: method as in PMID 34187286; conditions: cited from earlier work
[5] = extrapolated from unbound CLint in mouse liver microsomes, well-stirred model; cited from earlier work

SMILES: NC1CCc2ccccc21 (stereo not drawn) [1-aminoindan]
- CPA-induced α-Syn aggregation and neurodegeneration (α-Syn): prevented the CPA-induced α-Syn aggregation and neurodegeneration

SMILES: CCCn1c(=O)c2[nH]c(C3CCCC3)nc2n(CCC)c1=O [DPCPX]
- CPA-induced α-Syn aggregation and neurodegeneration (α-Syn): prevented the CPA-induced α-Syn aggregation and neurodegeneration

SMILES: Cn1c(=O)c2c(nc(CCCCCCNC3CCc4ccccc43)n2CCC[18F])n(C)c1=O (stereo not drawn) [^18F–C8–6–I]
- Parent compound share of the radioactivity signal [1]: ≥ 95%
- Defluorination in vivo (from bone uptake) ([2]; mouse, in vivo): little defluorination occurred in vivo
- blood5min/blood20min ([2]; ratio of blood radioactivity): 1.1
- blood5min/blood60min ([2]; ratio of blood radioactivity): 1.9
- brain5min/brain20min ([2]; ratio of brain uptake): 1.7
- brain5min/brain60min ([2]; ratio of brain uptake): 3.4
- Biodistribution, blood ([2]; 5 min p.i.): 0.76 ± 0.040 %ID/g
- Biodistribution, bone ([2]; 5 min p.i.): 1.00 ± 0.18 %ID/g
- Biodistribution, brain ([2]; 5 min p.i.): 0.17 ± 0.014 %ID/g
- Biodistribution, heart ([2]; 5 min p.i.): 2.34 ± 0.26 %ID/g
- Biodistribution, kidney ([2]; 5 min p.i.): 16.26 ± 1.82 %ID/g
- Biodistribution, large intestine ([2]; 5 min p.i.): 2.98 ± 0.94 %ID/g
- Biodistribution, liver ([2]; 5 min p.i.): 5.12 ± 1.65 %ID/g
- Biodistribution, lung ([2]; 5 min p.i.): 7.03 ± 1.24 %ID/g
- Biodistribution, small intestine ([2]; 5 min p.i.): 8.56 ± 2.02 %ID/g
- Biodistribution, spleen ([2]; 5 min p.i.): 6.54 ± 0.88 %ID/g
- Biodistribution, blood ([2]; 10 min p.i.): 0.78 ± 0.14 %ID/g
- Biodistribution, bone ([2]; 10 min p.i.): 1.24 ± 0.44 %ID/g
- Biodistribution, brain ([2]; 10 min p.i.): 0.14 ± 0.027 %ID/g
- Biodistribution, heart ([2]; 10 min p.i.): 1.77 ± 0.17 %ID/g
- Biodistribution, kidney ([2]; 10 min p.i.): 11.86 ± 1.74 %ID/g
- Biodistribution, large intestine ([2]; 10 min p.i.): 3.06 ± 0.73 %ID/g
- Biodistribution, liver ([2]; 10 min p.i.): 6.91 ± 2.02 %ID/g
- Biodistribution, lung ([2]; 10 min p.i.): 5.51 ± 0.44 %ID/g
- Biodistribution, small intestine ([2]; 10 min p.i.): 11.18 ± 3.11 %ID/g
- Biodistribution, spleen ([2]; 10 min p.i.): 5.49 ± 1.05 %ID/g
- Biodistribution, blood ([2]; 20 min p.i.): 0.67 ± 0.19 %ID/g
- Biodistribution, bone ([2]; 20 min p.i.): 1.18 ± 0.005 %ID/g
- Biodistribution, brain ([2]; 20 min p.i.): 0.10 ± 0.013 %ID/g
- Biodistribution, heart ([2]; 20 min p.i.): 1.14 ± 0.040 %ID/g
- Biodistribution, kidney ([2]; 20 min p.i.): 11.02 ± 0.48 %ID/g
- Biodistribution, large intestine ([2]; 20 min p.i.): 2.83 ± 0.068 %ID/g
- Biodistribution, liver ([2]; 20 min p.i.): 6.64 ± 1.44 %ID/g
- Biodistribution, lung ([2]; 20 min p.i.): 5.52 ± 0.72 %ID/g
- Biodistribution, small intestine ([2]; 20 min p.i.): 13.02 ± 1.24 %ID/g
- Biodistribution, spleen ([2]; 20 min p.i.): 5.71 ± 0.69 %ID/g
- Biodistribution, blood ([2]; 40 min p.i.): 0.48 ± 0.029 %ID/g
- Biodistribution, bone ([2]; 40 min p.i.): 1.04 ± 0.27 %ID/g
- Biodistribution, brain ([2]; 40 min p.i.): 0.10 ± 0.011 %ID/g
- Biodistribution, heart ([2]; 40 min p.i.): 1.01 ± 0.16 %ID/g
- Biodistribution, kidney ([2]; 40 min p.i.): 8.65 ± 1.21 %ID/g
- Biodistribution, large intestine ([2]; 40 min p.i.): 2.69 ± 0.26 %ID/g
- Biodistribution, liver ([2]; 40 min p.i.): 4.76 ± 0.54 %ID/g
- Biodistribution, lung ([2]; 40 min p.i.): 3.00 ± 1.40 %ID/g
- Biodistribution, small intestine ([2]; 40 min p.i.): 9.35 ± 1.82 %ID/g
- Biodistribution, spleen ([2]; 40 min p.i.): 5.80 ± 0.83 %ID/g
- Biodistribution, blood ([2]; 60 min p.i.): 0.39 ± 0.11 %ID/g
- Biodistribution, bone ([2]; 60 min p.i.): 1.20 ± 0.34 %ID/g
- Biodistribution, brain ([2]; 60 min p.i.): 0.05 ± 0.005 %ID/g
- Biodistribution, heart ([2]; 60 min p.i.): 0.49 ± 0.018 %ID/g
- Biodistribution, kidney ([2]; 60 min p.i.): 4.27 ± 0.37 %ID/g
- Biodistribution, large intestine ([2]; 60 min p.i.): 2.50 ± 0.93 %ID/g
- Biodistribution, liver ([2]; 60 min p.i.): 5.74 ± 1.12 %ID/g
- Biodistribution, lung ([2]; 60 min p.i.): 1.42 ± 0.22 %ID/g
- Biodistribution, small intestine ([2]; 60 min p.i.): 12.33 ± 0.81 %ID/g
- Biodistribution, spleen ([2]; 60 min p.i.): 3.79 ± 0.33 %ID/g
- Standardized uptake value in the whole brain ([3]; after 50 min): 0.21 SUV
- Maximum standardized uptake value in the whole brain ([3]; dynamic PET, tail vein injection): 0.47 SUV

SMILES: Cn1c(=O)c2c(nc(CCCCCCNC3CCc4ccccc43)n2CCCF)n(C)c1=O (stereo not drawn) [^19F–C8–6–I]
- Parent remaining in liver microsomes ([4]; 1 h incubation, human, mouse and rat liver microsomes): significant percentage of the parent ^19F–C8–6–I remained
- Defluorination in liver microsomes ([4]; mouse, rat and human liver microsomes): No defluorination was observed
- Predicted in vivo clearance in mouse plasma, CLp [5]: 36.0 mL/min/kg
